From patent US20260007131A1, “HERBICIDAL COMPOSITION CONTAINING DIFLUOROBUTENOIC ACID AMIDE COMPOUND” (ISHIHARA SANGYO KAISHA, LTD., priority 2022, published 2026)

Key:
Format in all cases: in vivo
[1] = test system: barnyardgrass (Echinochloa crus-galli); experiment: Herbicidal effect on barnyardgrass (foliar treatment)
Method: (§1) Upland soil was put into a 1/300,000 hectare (ha) pot, seeds of barnyardgrass (Echinochloa crus-galli) were sown, and about 1.5 cm of cover soil was put. The barnyardgrass was grown for 10 days in a greenhouse until it reached a predetermined leaf stage. […] The spray solution was sprayed over the grown barnyardgrass with a small sprayer for foliar treatment.
(§2) Upland soil was put into a 1/300,000 hectare (ha) pot, seeds of barnyardgrass (Echinochloa crus-galli), crabgrass (Digitaria sanguinalis), green foxtail (Setaria viridis), wild oat (Avena fatua), Italian ryegrass (Lolium multiflorum), foxtail shortawn (Alopecurus aequalis), annual bluegrass (Poa annua), redroot pigweed (Amaranthus retroflexus), common chickweed (Stellaria media) common lambsquarters (Chenopodium album) and black nightshade (Solanum nigrum) were sown, and about 1.5 cm of cover soil was put. The plants were grown for 10 days in a greenhouse until they reached a predetermined leaf stage.

[2] = test system: crabgrass (Digitaria sanguinalis); experiment: Herbicidal effect on crabgrass (foliar treatment)
Method: as §1, §2

[3] = test system: green foxtail (Setaria viridis); experiment: Herbicidal effect on green foxtail (foliar treatment)
Method: as §1, §2

[4] = test system: Italian ryegrass (Lolium multiflorum); experiment: Herbicidal effect on Italian ryegrass (foliar treatment)
Method: as §1, §2

[5] = test system: foxtail shortawn (Alopecurus aequalis); experiment: Herbicidal effect on foxtail shortawn (foliar treatment)
Method: as §1, §2

[6] = test system: annual bluegrass (Poa annua); experiment: Herbicidal effect on annual bluegrass (foliar treatment)
Method: as §1, §2

[7] = test system: redroot pigweed (Amaranthus retroflexus); experiment: Herbicidal effect on redroot pigweed (foliar treatment)
Method: as §1, §2

[8] = test system: common chickweed (Stellaria media); experiment: Herbicidal effect on common chickweed (foliar treatment)
Method: as §1, §2

[9] = test system: common lambsquarters (Chenopodium album); experiment: Herbicidal effect on common lambsquarters (foliar treatment)
Method: as §1, §2

[10] = test system: barnyardgrass (Echinochloa crus-galli); experiment: Herbicidal effect on barnyardgrass (soil treatment)
Source text: (§3) Upland soil was put into a 1/300,000 hectare (ha) pot, seeds of barnyardgrass (Echinochloa crus-galli) were sown, and about 1.5 cm of cover soil was put. […] On the next day after sowing, the spray solution was sprayed with a small sprayer for soil treatment.
(§4) Upland soil was put into a 1/300,000 hectare (ha) pot, seeds of barnyardgrass (Echinochloa crus-galli), crabgrass (Digitaria sanguinalis), green foxtail (Setaria viridis), Italian ryegrass (Lolium multiflorum), redroot pigweed (Amaranthus retroflexus) and common chickweed (Stellaria media) were sown, and about 1.5 cm of cover soil was put.

[11] = test system: Italian ryegrass (Lolium multiflorum); experiment: Herbicidal effect on Italian ryegrass (soil treatment); details: Comparative Test 2, Italian ryegrass, read-out: Growth inhibition rate
Source text: as §3, §4

[12] = test system: redroot pigweed (Amaranthus retroflexus); experiment: Herbicidal effect on redroot pigweed (soil treatment)
Source text: as §3, §4

[13] = test system: mexican burningbush (Kochia scoparia); experiment: Herbicidal effect on mexican burningbush (soil treatment); details: Bassia scoparia, 14th day, read-out: growth inhibition rate
Source text: Upland soil was put into a 1/300,000 hectare (ha) pot, seeds of barnyardgrass (Echinochloa crus-galli) were sown, and about 1.5 cm of cover soil was put. The Invention Compound was weighed to achieve a predetermined active ingredient amount, dissolved in acetone (containing 0.5 vol % of surfactant (TritonX-100: manufactured by Kishida Chemical Co., Ltd.)) or dimethyl sulfoxide and diluted with water (containing 0.1 vol % of agricultural spreader (Surfactant WK: manufactured by MARUWA Biochemical Co., Ltd.)) in an amount corresponding to 1,000 liter per hectare, to prepare a spray solution. On the next day after sowing, the spray solution was sprayed with a small sprayer for soil treatment.
On the 14th day after the soil treatment, the state of growth of each plant was visually observed.
To confirm herbicidal effect on mexican burningbush (Kochia scoparia), the same test as in Test Example 2 (2-1) (soil treatment) was conducted using the following compounds.

[14] = test system: common chickweed (Stellaria media); experiment: Comparative Test 2: herbicidal effect on common chickweed (soil treatment); details: Comparative Test 2, common chickweed, read-out: Growth inhibition rate
Source text: Upland soil was put into a 1/300,000 hectare (ha) pot, seeds of barnyardgrass (Echinochloa crus-galli), crabgrass (Digitaria sanguinalis), green foxtail (Setaria viridis), Italian ryegrass (Lolium multiflorum), redroot pigweed (Amaranthus retroflexus) and common chickweed (Stellaria media) were sown, and about 1.5 cm of cover soil was put. The Invention Compound (Aa-1-1, Aa-9-2) or the compound 4b described in Patent Document 1 was weighed to achieve a predetermined active ingredient dose, dissolved in acetone (containing 0.5 vol % of surfactant (TritonX-100: manufactured by Kishida Chemical Co., Ltd.)) or dimethyl sulfoxide and diluted with water (containing 0.1 vol % of agricultural spreader (Surfactant WK: manufactured by MARUWA Biochemical Co., Ltd.) in an amount corresponding to 1,000 liter per hectare, to prepare each spray solution. On the next day after sowing, each spray solution was sprayed with a small sprayer for soil treatment. On the 14th day after the soil treatment, the state of growth of each plant was visually observed, and the herbicidal effect was evaluated in accordance with the growth inhibition rate (%) of from 0 (equivalent to the non-treated area) to 100 (complete kill).

[15] = barnyardgrass, 250 g/ha, 14th day, read-out: growth inhibition rate
[16] = redroot pigweed, 250 g/ha, 14th day, read-out: growth inhibition rate

`COC(=O)[C@H]1C[C@@H](NC(=O)C(F)(F)/C=C/c2cc(F)cc(F)c2)C1` [Aa-1-1] was tested, and the inhibition at 500 g/ha ([1]; Comparative Test 1, barnyardgrass, 500 g/ha, read-out: Growth inhibition rate) was no less than 90%, the inhibition at 1000 g/ha ([1]; Comparative Test 1, barnyardgrass, 1000 g/ha, read-out: Growth inhibition rate) was no less than 90% and the inhibition at 250 g/ha [1, 15] was no less than 70%. It also gave an inhibition at 500 g/ha ([2]; Comparative Test 1, crabgrass, 500 g/ha, read-out: Growth inhibition rate) of no less than 90%, an inhibition at 1000 g/ha ([2]; Comparative Test 1, crabgrass, 1000 g/ha, read-out: Growth inhibition rate) of no less than 90% and an inhibition at 250 g/ha ([2]; crabgrass, 250 g/ha, 14th day, read-out: growth inhibition rate) of no less than 70%. It also gave an inhibition at 500 g/ha ([3]; Comparative Test 1, green foxtail, 500 g/ha, read-out: Growth inhibition rate) of no less than 90%, an inhibition at 1000 g/ha ([3]; Comparative Test 1, green foxtail, 1000 g/ha, read-out: Growth inhibition rate) of no less than 90% and an inhibition at 250 g/ha ([3]; green foxtail, 250 g/ha, 14th day, read-out: growth inhibition rate) of no less than 70%. It also gave an inhibition at 500 g/ha ([4]; Comparative Test 1, Italian ryegrass, 500 g/ha, read-out: Growth inhibition rate) of no less than 90%, an inhibition at 1000 g/ha ([4]; Comparative Test 1, Italian ryegrass, 1000 g/ha, read-out: Growth inhibition rate) of no less than 90% and an inhibition at 250 g/ha ([4]; Italian ryegrass, 250 g/ha, 14th day, read-out: growth inhibition rate) of no less than 70%. The inhibition at 500 g/ha ([5]; Comparative Test 1, foxtail shortawn, 500 g/ha, read-out: Growth inhibition rate) was no less than 90%, the inhibition at 1000 g/ha ([5]; Comparative Test 1, foxtail shortawn, 1000 g/ha, read-out: Growth inhibition rate) was no less than 90% and the inhibition at 250 g/ha ([5]; foxtail shortawn, 250 g/ha, 14th day, read-out: growth inhibition rate) was no less than 70%. It also gave an inhibition at 500 g/ha ([6]; Comparative Test 1, annual bluegrass, 500 g/ha, read-out: Growth inhibition rate) of no less than 90%, an inhibition at 1000 g/ha ([6]; Comparative Test 1, annual bluegrass, 1000 g/ha, read-out: Growth inhibition rate) of no less than 90% and an inhibition at 250 g/ha ([6]; annual bluegrass, 250 g/ha, 14th day, read-out: growth inhibition rate) of no less than 70%. It also gave an inhibition at 500 g/ha ([7]; Comparative Test 1, redroot pigweed, 500 g/ha, read-out: Growth inhibition rate) of 70 to 90%, an inhibition at 1000 g/ha ([7]; Comparative Test 1, redroot pigweed, 1000 g/ha, read-out: Growth inhibition rate) of 70 to 90% and an inhibition at 250 g/ha [7, 16] of no less than 70%. It also gave an inhibition at 500 g/ha ([8]; Comparative Test 1, common chickweed, 500 g/ha, read-out: Growth inhibition rate) of no less than 90%, an inhibition at 1000 g/ha ([8]; Comparative Test 1, common chickweed, 1000 g/ha, read-out: Growth inhibition rate) of no less than 90% and an inhibition at 250 g/ha ([8]; common chickweed, 250 g/ha, 14th day, read-out: growth inhibition rate) of no less than 70%. For the same compound, the inhibition at 500 g/ha ([9]; Comparative Test 1, common lambsquarters, 500 g/ha, read-out: Growth inhibition rate) was 70 to 90%, the inhibition at 1000 g/ha ([9]; Comparative Test 1, common lambsquarters, 1000 g/ha, read-out: Growth inhibition rate) was 70 to 90% and the inhibition at 250 g/ha ([9]; common lambsquarters, 250 g/ha, 14th day, read-out: growth inhibition rate) was no less than 70%. For the same compound, the inhibition at 500 g/ha ([10]; Comparative Test 2, barnyardgrass, 500 g/ha, read-out: Growth inhibition rate) was no less than 90%, the inhibition at 1000 g/ha ([10]; Comparative Test 2, barnyardgrass, 1000 g/ha, read-out: Growth inhibition rate) was no less than 90% and the inhibition at 250 g/ha [10, 15] was no less than 70%. The inhibition at 500 g/ha ([11]; 500 g/ha) was no less than 90%, the inhibition at 1000 g/ha ([11]; 1000 g/ha) was no less than 90% and the inhibition at 500 g/ha ([12]; Comparative Test 2, redroot pigweed, 500 g/ha, read-out: Growth inhibition rate) was no less than 90%. The inhibition at 1000 g/ha ([12]; Comparative Test 2, redroot pigweed, 1000 g/ha, read-out: Growth inhibition rate) was no less than 90%, the inhibition at 250 g/ha [12, 16] was no less than 70% and the inhibition at 250 g/ha [13] was no less than 70%. It also gave an inhibition at 500 g/ha ([14]; 500 g/ha) of no less than 90% and an inhibition at 1000 g/ha ([14]; 1000 g/ha) of no less than 90%.
